Measured values as given in patent US9840513B2 (AbbVie S.à.r.l., priority 2015, dated 2017).

Target: T1, F508delCFTR cell surface expression in CFBE41o-F508delCFTR-HRP cells (Homo sapiens, UniProt P13569, DEL508-508)
T1 construct: fused on or other part: Horseradish peroxidase (HRP) reporter inserted in the fourth exofacial (extracellular) loop of CFTR; expression is doxycycline-inducible
Experiment: Cell Surface Expression-Horse Radish Peroxidase (CSE-HRP) Assay
Format: cell-based
Conditions: for EC50: CFBE41o-F508delCFTR-HRP cells, 18-24 hours at 33° C., 8-point curve, highest concentration 20 μM; for Maximum % activity (%): maximum at any tested concentration, normalized to on-plate positive control (3 μM)
How it was run: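 Correctors incubated 18-24 h at 33 °C on doxycycline-induced (0.5 μg/mL, 72 h) CFBE41o-F508delCFTR-HRP cells, 3-fold series from 20 μM. After DPBS washes, luminol luminescence read; activity expressed relative to DMSO and a 3 μM positive control, EC50 fitted from triplicate plates.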

T1 sequence (P13569 with tags, fused parts or gaps DEL508-508 limits assumed): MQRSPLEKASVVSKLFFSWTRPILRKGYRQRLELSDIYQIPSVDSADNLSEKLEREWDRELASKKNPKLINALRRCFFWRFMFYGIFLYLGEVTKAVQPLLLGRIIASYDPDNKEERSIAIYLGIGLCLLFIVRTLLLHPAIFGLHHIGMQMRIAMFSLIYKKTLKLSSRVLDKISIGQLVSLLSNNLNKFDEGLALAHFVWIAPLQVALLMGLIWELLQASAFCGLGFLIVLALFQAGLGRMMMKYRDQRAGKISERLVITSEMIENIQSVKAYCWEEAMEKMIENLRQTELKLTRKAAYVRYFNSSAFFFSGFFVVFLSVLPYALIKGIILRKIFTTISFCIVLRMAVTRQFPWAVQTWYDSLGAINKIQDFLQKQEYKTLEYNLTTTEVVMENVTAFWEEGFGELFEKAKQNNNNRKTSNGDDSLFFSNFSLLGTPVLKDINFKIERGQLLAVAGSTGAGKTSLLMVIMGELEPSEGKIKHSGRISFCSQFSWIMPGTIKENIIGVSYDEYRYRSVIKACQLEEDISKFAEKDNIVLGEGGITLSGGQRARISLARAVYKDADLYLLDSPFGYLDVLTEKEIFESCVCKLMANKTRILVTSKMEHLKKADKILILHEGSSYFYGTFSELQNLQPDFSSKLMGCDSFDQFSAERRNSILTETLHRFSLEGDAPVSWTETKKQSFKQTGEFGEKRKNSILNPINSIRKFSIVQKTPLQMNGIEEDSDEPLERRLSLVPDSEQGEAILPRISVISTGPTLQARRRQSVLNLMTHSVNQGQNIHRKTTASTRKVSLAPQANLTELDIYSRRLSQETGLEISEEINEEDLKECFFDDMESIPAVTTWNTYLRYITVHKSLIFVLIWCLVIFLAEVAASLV
T1 sequence (P13569 919-1480 limits assumed, stated change not applied): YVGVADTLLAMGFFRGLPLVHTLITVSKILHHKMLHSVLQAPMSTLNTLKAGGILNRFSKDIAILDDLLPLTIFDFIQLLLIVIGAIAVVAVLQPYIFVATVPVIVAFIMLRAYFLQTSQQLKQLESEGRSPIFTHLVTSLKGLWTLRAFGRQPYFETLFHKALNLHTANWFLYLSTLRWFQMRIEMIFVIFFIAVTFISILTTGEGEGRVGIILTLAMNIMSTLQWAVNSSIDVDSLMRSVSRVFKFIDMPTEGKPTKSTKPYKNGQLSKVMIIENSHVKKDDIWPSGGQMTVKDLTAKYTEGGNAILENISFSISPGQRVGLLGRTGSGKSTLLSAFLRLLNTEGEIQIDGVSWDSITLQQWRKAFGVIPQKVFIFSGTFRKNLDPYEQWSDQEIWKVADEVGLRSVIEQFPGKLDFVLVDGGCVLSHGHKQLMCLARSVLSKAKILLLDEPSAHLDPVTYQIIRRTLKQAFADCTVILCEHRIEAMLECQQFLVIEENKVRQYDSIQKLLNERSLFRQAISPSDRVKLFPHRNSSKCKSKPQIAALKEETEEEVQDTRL

EC50 | Maximum % activity (%) | Compound
10 nM | 116% | COc1ccc2c(c1)O[C@@H](c1ccc(C(=O)N3CCC(F)(F)CC3)cn1)C[C@H]2NC(=O)[C@@]1(C)COc2cc3c(cc21)OC(F)(F)O3 [Example 218, (7R)—N-{(2R,4R)-2-[5-(4,4-difluoropiperidine-1-carbonyl)pyridin-2-yl]-7-methoxy-3,4-dihydro-2H-1-benzopyran-4-yl}-2,2-difluoro-7-methyl-6,7-dihydro-2H-furo[2,3-f][1,3]benzodioxole-7-carboxamide]
90 nM | 158% | C[C@]1(C(=O)N[C@@H]2C[C@H]([C@H]3CC[C@H](C(=O)N4C[C@@H](O)[C@H](O)C4)CC3)Oc3cc(OC(F)(F)F)ccc32)COc2cc3c(cc21)OC(F)(F)O3 [Example 255, (7R)—N-[(2R,4R)-2-{trans-4-[(3R,4R)-3,4-dihydroxypyrrolidine-1-carbonyl]cyclohexyl}-7-(trifluoromethoxy)-3,4-dihydro-2H-1-benzopyran-4-yl]-2,2-difluoro-7-methyl-6,7-dihydro-2H-furo[2,3-f][1,3]benzodioxole-7-carboxamide]
50 nM | 121% | COc1ccc2c(c1)O[C@@H](c1ccc(C(=O)N3CCOC(CO)C3)cn1)C[C@H]2NC(=O)[C@@]1(C)COc2cc3c(cc21)OC(F)(F)O3 (stereo partly drawn) [Example 237, (7R)-2,2-difluoro-N-[(2R,4R)-2-{5-[2-(hydroxymethyl)morpholine-4-carbonyl]pyridin-2-yl}-7-methoxy-3,4-dihydro-2H-1-benzopyran-4-yl]-7-methyl-6,7-dihydro-2H-furo[2,3-f][1,3]benzodioxole-7-carboxamide]
1940 nM | 173% | Cc1c(C(=O)O)cccc1-c1cccc(NC(=O)[C@@]2(C)COc3cc4c(cc32)OC(F)(F)O4)n1 [Example 122, 3-(6-{[(7R)-2,2-difluoro-7-methyl-6,7-dihydro-2H-furo[2,3-f][1,3]benzodioxole-7-carbonyl]amino}pyridin-2-yl)-2-methylbenzoic acid]
50 nM | 107% | COc1ccc2c(c1)O[C@@H](c1ccc(C(=O)NC[C@H]3C[C@H](O)C3)cn1)C[C@H]2NC(=O)[C@@]1(C)COc2cc3c(cc21)OC(F)(F)O3 [Example 245, 6-[(2R,4R)-4-{[(7R)-2,2-difluoro-7-methyl-6,7-dihydro-2H-furo[2,3-f][1,3]benzodioxole-7-carbonyl]amino}-7-methoxy-3,4-dihydro-2H-1-benzopyran-2-yl]-N-[(trans-3-hydroxycyclobutyl)methyl]pyridine-3-carboxamide]
10 nM | 103% | COc1ccc2c(c1)O[C@@H](c1ccc(C(=O)Nc3ccccc3O)cn1)C[C@H]2NC(=O)[C@@]1(C)COc2cc3c(cc21)OC(F)(F)O3 [Example 208, 6-[(2R,4R)-4-{[(7R)-2,2-difluoro-7-methyl-6,7-dihydro-2H-furo[2,3-f][1,3]benzodioxole-7-carbonyl]amino}-7-methoxy-3,4-dihydro-2H-1-benzopyran-2-yl]-N-(2-hydroxyphenyl)pyridine-3-carboxamide]
2260 nM | 129% | Cc1ccc(C(=O)O)cc1-c1cccc(NC(=O)[C@@]2(C)COc3cc4c(cc32)OC(F)(F)O4)n1 [Example 129, 3-(6-{[(7R)-2,2-difluoro-7-methyl-6,7-dihydro-2H-furo[2,3-f][1,3]benzodioxole-7-carbonyl]amino}pyridin-2-yl)-4-methylbenzoic acid]
960 nM | 39% | CC(C)(CO)[C@@H]1Cc2cc(NC(=O)[C@@]3(C)COc4cc5c(cc43)OC(F)(F)O5)c(F)cc2N1C[C@@H](O)CO (single isomer, unassigned) [Example 141]
168 nM | 117% | CCOC(=O)[C@H]1CC[C@@H]([C@H]2C[C@@H](NC(=O)[C@@]3(C)COc4cc5c(cc43)OC(F)(F)O5)c3ccc(OC(F)(F)F)cc3O2)CC1 [Example 157, ethyl cis-4-[(2R,4R)-4-{[(7R)-2,2-difluoro-7-methyl-6,7-dihydro-2H-furo[2,3-f][1,3]benzodioxole-7-carbonyl]amino}-7-(trifluoromethoxy)-3,4-dihydro-2H-1-benzopyran-2-yl]cyclohexane-1-carboxylate]
3350 nM | 31% | C[C@]1(C(=O)N[C@H]2C[C@@H](C3CCNCC3)Oc3cc(OC(F)(F)F)ccc32)COc2cc3c(cc21)OC(F)(F)O3 [Example 185, (7R)-2,2-difluoro-7-methyl-N-[(2S,4S)-2-(piperidin-4-yl)-7-(trifluoromethoxy)-3,4-dihydro-2H-1-benzopyran-4-yl]-6,7-dihydro-2H-furo[2,3-f][1,3]benzodioxole-7-carboxamide]

The remaining lines, values behind:

Compound | EC50 | Maximum % activity (%)
COC(=O)c1ccc([C@H]2C[C@@H](NC(=O)C3(C)COc4cc5c(cc43)OC(F)(F)O5)c3ccc(OC)cc3O2)cc1 (stereo partly drawn) [Example 15, methyl 4-{(2R,4R)-4-[(2,2-difluoro-7-methyl-6,7-dihydro-2H-furo[2,3-f][1,3]benzodioxole-7-carbonyl)amino]-7-methoxy-3,4-dihydro-2H-1-benzopyran-2-yl}benzoate] | 150 nM | 143%
4-[(2R,4S,6S)-4-{[(7R)-2,2-difluoro-7-methyl-6,7-dihydro-2H-furo[2,3-f][1,3]benzodioxole-7-carbonyl]amino}-6-phenyloxan-2-yl]benzoic acid and 4-[(2S,4R,6R)-4-{[(7R)-2,2-difluoro-7-methyl-6,7-dihydro-2H-furo[2,3-f][1,3]benzodioxole-7-carbonyl]amino}-6-phenyloxan-2-yl]benzoic acid [Example 34] | 480 nM | 109%
CC(C)CN1CC2CN(c3cccc(NC(=O)C4(C)COc5cc6c(cc54)OC(F)(F)O6)n3)CC2C1 (stereo not shown) [Example 108, 2,2-difluoro-7-methyl-N-{6-[5-(2-methylpropyl)hexahydropyrrolo[3,4-c]pyrrol-2(1H)-yl]pyridin-2-yl}-6,7-dihydro-2H-furo[2,3-f][1,3]benzodioxole-7-carboxamide] | 1990 nM | 89%
C[C@]1(C(=O)N[C@@H]2C[C@H](c3ccc(C(=O)O)cc3)Oc3ccccc32)COc2cc3c(cc21)OC(F)(F)O3 [Example 23, 4-[(2R,4R)-4-{[(7R)-2,2-difluoro-7-methyl-6,7-dihydro-2H-furo[2,3-f][1,3]benzodioxole-7-carbonyl]amino}-3,4-dihydro-2H-1-benzopyran-2-yl]benzoic acid] | 180 nM | 127%
C[C@]1(C(=O)Nc2cccc(N3CC[C@@H](O)C3)n2)COc2cc3c(cc21)OC(F)(F)O3 [Example 91, (7R)-2,2-difluoro-N-{6-[(3R)-3-hydroxypyrrolidin-1-yl]pyridin-2-yl}-7-methyl-6,7-dihydro-2H-furo[2,3-f][1,3]benzodioxole-7-carboxamide] | 210 nM | 116%
COc1ccc2c(c1)O[C@@H](c1ccc(C(=O)O)cc1)C[C@H]2NC(=O)[C@]1(C)CCc2cc3c(cc21)OC(F)(F)O3 (single isomer, unassigned) [Example 49] | 210 nM | 116%
Cc1ccc(NC(=O)C2(C)COc3cc4c(cc32)OC(F)(F)O4)nc1-c1cccc(C(=O)OC(C)(C)C)c1 (stereo not shown) [Example 1, tert-butyl 3-{6-[(2,2-difluoro-7-methyl-6,7-dihydro-2H-furo[2,3-f][1,3]benzodioxole-7-carbonyl)amino]-3-methylpyridin-2-yl}benzoate] | 2050 nM | 100%
Cc1ccc(NC(=O)C2(C)COc3cc4c(cc32)OC(F)(F)O4)nc1-c1cccc(C(N)=O)c1 (stereo not shown) [Example 74, N-[6-(3-carbamoylphenyl)-5-methylpyridin-2-yl]-2,2-difluoro-7-methyl-6,7-dihydro-2H-furo[2,3-f][1,3]benzodioxole-7-carboxamide] | 700 nM | 105%
COc1ccc2c(c1)O[C@@H](c1ccc(C(=O)O)cc1)C[C@H]2NC(=O)[C@@]1(C)CCc2c1ccc1c2OCO1 [Example 42, 4-[(2R,4R)-7-methoxy-4-{[(6S)-6-methyl-7,8-dihydro-2H,6H-indeno[4,5-d][1,3]dioxole-6-carbonyl]amino}-3,4-dihydro-2H-1-benzopyran-2-yl]benzoic acid] | 1060 nM | 61%
Cc1ccc(NC(=O)[C@@]2(C)COc3cc4c(cc32)OC(F)(F)O4)nc1-c1cccc(C#N)c1 [Example 78, (7R)—N-[6-(3-cyanophenyl)-5-methylpyridin-2-yl]-2,2-difluoro-7-methyl-6,7-dihydro-2H-furo[2,3-f][1,3]benzodioxole-7-carboxamide] | 570 nM | 95%
C[C@]1(C(=O)Nc2cccc(N3CCC(c4ccc(F)cc4)C3)n2)COc2cc3c(cc21)OC(F)(F)O3 (stereo partly drawn) [Example 114, (7R)-2,2-difluoro-N-{6-[3-(4-fluorophenyl)pyrrolidin-1-yl]pyridin-2-yl}-7-methyl-6,7-dihydro-2H-furo[2,3-f][1,3]benzodioxole-7-carboxamide] | 750 nM | 98%
COc1ccc2c(c1)O[C@@H](c1cccc(C(=O)O)c1)C[C@H]2NC(=O)[C@]1(C)CCc2cc3c(cc21)OC(F)(F)O3 (single isomer, unassigned) [Example 56] | 880 nM | 107%
C[C@]1(C(=O)N[C@@H]2C[C@H](c3ccc(C(=O)O)cc3)Oc3ccccc32)CCc2cc3c(cc21)OC(F)(F)O3 [Example 59, 4-[(2R,4R)-4-{[(5S)-2,2-difluoro-5-methyl-6,7-dihydro-211,51-indeno[5,6-d][1,3]dioxole-5-carbonyl]amino}-3,4-dihydro-2H-1-benzopyran-2-yl]benzoic acid] | 2750 nM | 50%
